The record followed here is patent US20220362330A1, “Compositions and Methods for Increasing Epithelial Barrier Function” (The Board of Trustees of the Leland Stanford Junior …, priority 2019, published 2022).

The subject of assay [1] is claudin-1, occludin, and tight junction protein 1. Nature of the assay: Gene expression of other cell-cell adhesion molecules in vaginal tissue. The format is in vivo, mice.
Assay [2] concerns markers of inflammation. Put plainly: Expression of markers of inflammation in ectocervical biopsies from women. The format is in vivo. As to conditions: 1 month after initiating DMPA vs no hormonal contraceptive.
Assay [3] has as its system EphrinA3 (EFNA3). Nature of the assay: EphrinA3 gene and protein expression in vaginal tissue (RT-PCR, immunohistochemistry). In kind it is in vivo. The settings on record: DMPA-treated vs estrus-stage mice. The text has this: Vaginal tissue was harvested from mice in estrus, DMPA-treated mice, and mice treated with DMPA and Premarin vaginal cream were placed in RNAlater® for RNA isolation or embedded in formaldehyde for histology analysis. FIG. 5A is a bar graph showing gene expression for Ephrin A3 (Efna3) relative to pyruvate carboxylase, a housekeeping gene.
To corroborate microarray results, EphrinA3 gene and protein expression were compared in estrus-stage and DMPA-treated mice. To also evaluate effects of exogenous estrogen, other DMPA-treated mice were treated intravaginally with the estrogen cream Premarin. […] The vaginal tissue was assessed for DSG1 protein levels using immunofluorescent staining and confocal microscopy.
Human ectocervical and murine vaginal tissues were immediately immersed in 1 mL of RNAlater® (Qiagen), stored for 24 h at 4° C., and stored long-term at −80° C. RNA isolated using the RNeasy Lipid Tissue Kit (Qiagen) using manufacturer's instructions was re-suspended in nuclease-free water and quantified using a NanoDrop spectrophotometer (Thermo Scientific). […] To define relative gene expression, 100 ng of RNA was mixed with TaqMan® RNA-to-Ct™ 1-Step Kit and adequate primer (final volume of 10 μL/well) using manufacturer's instructions (Life Technologies). qRT-PCR was performed using a Quantstudio3 Thermal Cycler, and data analyzed via Quanstudio Software (Applied Biosystems). […]

Assay [4] deals with vaginal microbiota / pro-inflammatory mediators. Nature of the assay: Bacteria and inflammation in genital mucosa. In kind it is in vivo, mice. An excerpt: While prior clinical studies identified increased inflammation in the genital tracts of women using DMPA, the underlying mechanism for this effect had been undefined. Because DMPA increased genital mucosal permeability, it was posited DMPA increases inflammation by promoting entry of the vaginal microbiota into mucosal tissue.

Assay [5] has as its system upstream regulators EFNA3 and ROCK2. Nature of the assay: Genome-wide gene expression and pathway analysis of vaginal tissue. In kind it is in vivo. As to conditions: DMPA-treated vs estrus-stage mice. As to the method:
The above results established changes that occur in genital mucosa of women initiating DMPA are recapitulated in DMPA-treated mice, and these that changes include lower expression of the cell-cell adhesion molecule DSG1 and increased genital mucosal permeability. To investigate mechanisms for DMPA-mediated downregulation of DSG1, genome-wide gene expression studies were performed with vaginal tissue from estrus-stage mice (i.e., mice resistant to genital HSV infection) and DMPA-treated mice (i.e., mice highly susceptible to this virus). […] EFNA molecules are involved in pathways that induce DSG1 expression and regulate epithelial cell responses and formation of intercellular adhesion complexes, and Eph receptors stimulate ROCK2-mediated actinomyosin contractility that increases keratinocyte differentiation via DSG1 upregulation. These gene expression analyses thus identified a potential mechanism by which progestins alter E-regulated expression of EFNA3 and ROCK2 and levels of DSG1. As EFNA3, DSG1, and ROCK2 are basally expressed in human genital epithelium, capacity of this E-regulated pathway to promote genital mucosal integrity in mice may also extend to results seen in the human female genital tract.

The subject of assay [6] is desmoglein-1a (DSG1a). Nature of the assay: qRT-PCR of Dsg1a gene expression in vaginal tissue. The format is in vivo, mice. As to conditions: progestin-treated mice vs mice in estrus. How it is done:
To define progestin-mediated changes in mucosal permeability, vaginal tissue from mice in estrus, diestrus, or after DMPA or LNG treatment was used to measure expression of the desmosomal cadherins desmoglein-1a (DSG1a) and desmocollin-1 (DSC1).
Human ectocervical and murine vaginal tissues were immediately immersed in 1 mL of RNAlater® (Qiagen), stored for 24 h at 4° C., and stored long-term at −80° C. RNA isolated using the RNeasy Lipid Tissue Kit (Qiagen) using manufacturer's instructions was re-suspended in nuclease-free water and quantified using a NanoDrop spectrophotometer (Thermo Scientific). The following mouse primers were utilized: desmocollin 1 (Mm00496525_ml), desmoglein-1α (Mm00809994_s1), ephrinA3 (Mm01212723_g1) and pyruvate carboxylase (Mm00500992_ml) as housekeeping reference gene (all from Thermo Scientific). These human primers were used: desmoglein-1 (Hs00355084_m1) and glucose-6-phosphate isomerase (Hs00976711_m1) as a housekeeping reference gene. To define relative gene expression, 100 ng of RNA was mixed with TaqMan® RNA-to-Ct™ 1-Step Kit and adequate primer (final volume of 10 μL/well) using manufacturer's instructions (Life Technologies). qRT-PCR was performed using a Quantstudio3 Thermal Cycler, and data analyzed via Quanstudio Software (Applied Biosystems).
(Quantitative PCR measures a nucleic acid by following its amplification.)

[7] abbreviates: DMPA-treated vs. estrus-stage mice.

“Also recorded” adds a separate entry of the source.

On to `CC(=O)O[C@]1(C(C)=O)CC[C@H]2[C@@H]3C[C@H](C)C4=CC(=O)CC[C@]4(C)[C@H]3CC[C@@]21C` [DMPA], for which, in assay [1], the “gene expression of claudin-1, occludin, and tight junction protein 1” value was “did not alter”. For the same compound, in assay [2], the “expression of markers of inflammation in ectocervical tissue” value was “significantly higher”. The “expression of EphrinA3 in vaginal mucosal tissue” value in assay [3] is given as “dramatically impair expression; also recorded: reduces EFNA3 expression”. Moreover, in assay [4] (setting [7]), the “Gram-negative bacteria in the mucosa” value was “more Gram-negative bacteria” and the “levels of pro-inflammatory mediators in the mucosa” value is “higher levels of pro-inflammatory mediators”. Moreover, the inflammation entry in assay [4] (germ-free mice) was “not inflammation”. In addition, in assay [5], the “effect on signaling pathways (pathway analysis)” value was “inhibition of signaling pathways that involve ephrin-A3 (EFNA3) and ROCK2”. Further, the “Expr Log Ratio” value in assay [5] (upstream regulator EFNA3) is listed as −2.593. Also, the “DSG1a gene expression in vaginal tissue” value in assay [6] was “decrease gene expression levels”.
